Read-outs that look alike come from different tables or passages of the source.
How the values were obtained:
[1] = system: JAK1: IL-13-stimulated STAT6 phosphorylation in BEAS-2B cells; assay: P-STAT6 BEAS-2B+IL-13 Cell Assay; format: cell-based, human; details: IL-13 stimulation, read-out: Cellular JAK1 PSTAT6 BEAS2B + IL13 IC50
Procedure, shortened: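 BEAS-2B cells in BEGM preincubated 1 h at 37 °C with 10-point, 1:2 compound dilutions, then stimulated 15 min with IL-13 (250 ng/mL stock). Lysate pSTAT6 (Tyr641) captured on total-STAT6 antibody and read by MSD electrochemiluminescence; IC50 from four-parameter logistic fit.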

[2] = system: JAK1 pathway: P-STAT6 in TF-1 human erythroleukemia cells + IL-13; assay: P-STAT6 TF-1+Interleukin-13 (IL-13) assay; format: cell-based; details: Homo sapiens, TF-1, TF-1 cells, IL-13 stimulation; read-out: Cellular JAK1 PSTAT6 TF-1 + IL13 IC50
Method: (§1) TF-1 human erythroleukemia cells (ATCC®; Manassas, Va.; Catalog No. CRL-2003™) were grown in Roswell Park Memorial Institute (RPMI) medium supplemented with 10% heat-inactivated fetal bovine serum (FBS), 2 ng/mL granulocyte-macrophage colony-stimulating factor, 1×non-essential amino acids (NEAA), and 1 mM sodium pyruvate. The day before the assay, the cultures were transferred to Opti-MEM™, 1×NEAA, 1 mM sodium pyruvate, and 0.5% charcoal-stripped FBS (starve medium). Inhibitor stock solutions (5 mM in DMSO) were serially diluted 1:2 in DMSO to generate a 10-point concentration titration (at 500×test concentration), which was further diluted by a 50-fold dilution in Assay Medium (RPMI containing 1×NEAA and 1 mM sodium pyruvate) to generate a 10×concentration titration (in 2% DMSO). The cells (300,000 cells/well in 35 μL of Assay Medium) were seeded in 384-well Greiner plates. Diluted inhibitor at 10×concentration (5 μL) was added to the cells and the plates were incubated for 30 minutes at 37° C. in a humidified incubator. Cells were stimulated with the human recombinant cytokine at the respective EC90 concentrations, as previously determined for each individual lot. For the phosphorylated signal transducer and activator of transcription 6 (P-STAT6) TF-1+Interleukin-13 (IL-13) assay, 10 μL of 250 ng/mL IL-13 (R&D Systems; Minneapolis, Minn.) was added to the cells, which were then incubated for 10 minutes at 37° C. For the P-STAT5 TF-1+Erythropoietin (EPO) assay, 10 μL of 110 IU/mL EPO (Gibco Life Technologies, Catalog No. PHC2054) was added to the cells, which were then incubated for 30 min at 37° C. For both assays, the incubation was followed by addition to the cells of 5 μL of ice-cold 10× cell lysis buffer (Cell Signaling Technologies; Danvers, Mass.; Catalog No. 9803S) containing 1 mM phenylmethylsulfonyl fluoride (PMSF). Assay plates were frozen at −80° C. for a minimum of 1 horn. In the IL-13 assay, P-STAT6 was measured by coating goat anti-rabbit (GAR) plates (Meso Scale Discovery [MSD]; Rockville, Md.; Catalog No. MSD L21RA-1) with rabbit anti-human total STAT6 antibody (Cell Signaling Technologies; Catalog No. 9362S), incubating the cell lysates in the coated plates overnight at 4° C., and then detecting with mouse anti-P-STAT6 (Tyr641) Clone 16E12 antibody (MilliporeSigma; Burlington, Mass.; Catalog No. 05-590, custom labeled by MSD with SULFO-tag) using standard MSD plate processing, washing, and detection protocols. In the EPO assay, P-STAT5 was detected using the phospho-STAT5a,b Whole Cell Lysate Kit (MSD; Catalog No. K150IGD-1). The electrochemiluminescence (ECL) signal of wells was read on the MESO SECTOR S600 (MSD) reader.

[3] = system: JAK2 pathway: P-STAT5 in TF-1 human erythroleukemia cells + EPO; assay: P-STAT5 TF-1+Erythropoietin (EPO) assay; format: cell-based; details: Homo sapiens, TF-1, TF-1 cells, EPO stimulation; read-out: Cellular JAK2 PSTAT5 TF-l + EPO IC50
Method: as §1

| IC50 [2] | IC50 [3] | Structure (SMILES) | IC50 ([1]; Homo sapiens, BEAS-2B) | IC50 [1] |
| --- | --- | --- | --- | --- |
| 3.1 nM | 6.4 nM | Cn1cc(NC(=O)c2cnn3cccnc23)c(-c2cc(S(=O)(=O)c3ccccc3)ccc2OC(F)F)n1 [Example 40, N-[3-[5-(benzenesulfonyl)-2-(difluoromethoxy)phenyl]-1-methyl-pyrazol-4-yl]pyrazolo[1,5-a]pyrimidine-3-carboxamide] | 24 nM | – |
| – | – | Cn1cc(NC(=O)c2cnn3cccnc23)c(-c2cc(S(=O)(=O)CCCO)ccc2OC(F)F)n1 [Example 63, N-[3-[2-(difluoromethoxy)-5-(3-hydroxypropylsulfonyl)phenyl]-1-methyl-pyrazol-4-yl]pyrazolo[1,5-a]pyrimidine-3-carboxamide] | 71 nM | – |
| – | – | CN1CCCC1CCn1cc(S(=O)(=O)c2ccc(OC(F)F)c(-c3nn(C)cc3NC(=O)c3cnn4cccnc34)c2)cn1 (stereo in doubt) [Example 56, N-[3-[2-(difluoromethoxy)-5-[1-[2-[(2R)-1-methylpyrrolidin-2-yl]ethyl]pyrazol-4-yl]sulfonyl-phenyl]-1-methyl-pyrazol-4-yl]pyrazolo[1,5-a]pyrimidine-3-carboxamide] | 56 nM | – |
| 4.6 nM | 14 nM | Cn1cc(NC(=O)c2cnn3cccnc23)c(-c2cc(S(=O)(=O)C3CC3)ccc2OC(F)F)n1 [Example 22, N-[3-[5-cyclopropylsulfonyl-2-(difluoromethoxy)phenyl]-1-methyl-pyrazol-4-yl]pyrazolo[1,5-a]pyrimidine-3-carboxamide] | 23 nM | – |
| – | – | C[C@H](O)CS(=O)(=O)c1ccc(OC(F)F)c(-c2nn(C)cc2NC(=O)c2cnn3cccnc23)c1 (stereo in doubt) [Example 15, N-[3-[2-(difluoromethoxy)-5-[rac-(2S)-2-hydroxypropyl]sulfonyl-phenyl]-1-methyl-pyrazol-4-yl]pyrazolo[1,5-a]pyrimidine-3-carboxamide] | 20 nM | – |
| 20 nM | 22 nM | CC(CO)S(=O)(=O)c1ccc(OC(F)F)c(-c2nn(C)cc2NC(=O)c2cnn3cccnc23)c1 (single isomer, unassigned) [Example 23, N-[3-[2-(difluoromethoxy)-5-(2-hydroxy-1-methyl-ethyl)sulfonyl-phenyl]-1-methyl-pyrazol-4-yl]pyrazolo[1,5-a]pyrimidine-3-carboxamide] | – | 14 nM |
| – | – | Cn1cc(NC(=O)c2cnn3cccnc23)c(-c2cc(S(=O)(=O)c3ccncc3)ccc2OC(F)F)n1 [Example 16, N-[3-[2-(difluoromethoxy)-5-(4-pyridylsulfonyl)phenyl]-1-methyl-pyrazol-4-yl]pyrazolo[1,5-a]pyrimidine-3-carboxamide] | 15 nM | – |
| 34 nM | 28 nM | Cn1cc(NC(=O)c2cnn3cccnc23)c(-c2cc(S(=O)(=O)C3COC3)ccc2OC(F)F)n1 [Example 13, N-[3-[2-(difluoromethoxy)-5-(oxetan-3-ylsulfonyl)phenyl]-1-methyl-pyrazol-4-yl]pyrazolo[1,5-a]pyrimidine-3-carboxamide] | 33 nM | – |
| – | – | CNS(=O)(=O)c1ccc(OC(F)F)c(-c2nn(C)cc2NC(=O)c2cnn3cccnc23)c1 [Example 26, N-[3-[2-(difluoromethoxy)-5-(methylsulfamoyl)phenyl]-1-methyl-pyrazol-4-yl]pyrazolo[1,5-a]pyrimidine-3-carboxamide] | 11 nM | – |
| 27 nM | 61 nM | Cn1cc(NC(=O)c2cnn3cccnc23)c(-c2cc3c(cc2OC(F)F)NCCS3(=O)=O)n1 [Example 46, N-[3-[6-(difluoromethoxy)-1,1-dioxo-3,4-dihydro-2H-1lambda6,4-benzothiazin-7-yl]-1-methyl-pyrazol-4-yl]pyrazolo[1,5-a]pyrimidine-3-carboxamide] | 49 nM | – |
| 21 nM | 22 nM | CN(C)CCS(=O)(=O)c1ccc(OC(F)F)c(-c2nn(C)cc2NC(=O)c2cnn3cccnc23)c1 [Example 7, N-[3-[2-(difluoromethoxy)-5-[2-(dimethylamino)ethylsulfonyl]phenyl]-1-methyl-pyrazol-4-yl]pyrazolo[1,5-a]pyrimidine-3-carboxamide] | 32 nM | – |
| – | – | CN(CCO)S(=O)(=O)c1ccc(OC(F)F)c(-c2nn(C)cc2NC(=O)c2cnn3cccnc23)c1 [Example 73, N-(3-(2-(difluoromethoxy)-5-(N-(2-hydroxyethyl)-N-methylsulfamoyl)phenyl)-1-methyl-1H-pyrazol-4-yl)pyrazolo[1,5-a]pyrimidine-3-carboxamide] | 53 nM | – |
| 14 nM | 15 nM | Cn1cc(NC(=O)c2cnn3cccnc23)c(-c2cc(S(=O)(=O)c3ccn(C)c(=O)c3)ccc2OC(F)F)n1 [Example 44, N-[3-[2-(difluoromethoxy)-5-[(1-methyl-2-oxo-4-pyridyl)sulfonyl]phenyl]-1-methyl-pyrazol-4-yl]pyrazolo[1,5-a]pyrimidine-3-carboxamide] | 29 nM | – |
| 20 nM | 39 nM | C[C@@H](O)CS(=O)(=O)c1ccc(OC(F)F)c(-c2nn(C)cc2NC(=O)c2cnn3cccnc23)c1 (stereo in doubt) [Example 25, N-[3-[2-(difluoromethoxy)-5-[rac-(2R)-2-hydroxypropyl]sulfonyl-phenyl]-1-methyl-pyrazol-4-yl]pyrazolo[1,5-a]pyrimidine-3-carboxamide] | 20 nM | – |
| 3.1 nM | 26 nM | CS(=O)(=O)c1ccc(OC(F)F)c(-c2nn(CC#N)cc2NC(=O)c2cnn3cccnc23)c1 [Example 28, N-[1-(cyanomethyl)-3-[2-(difluoromethoxy)-5-methylsulfonyl-phenyl]pyrazol-4-yl]pyrazolo[1,5-a]pyrimidine-3-carboxamide] | 9.5 nM | – |
| – | – | CN(C)S(=O)(=O)c1ccc(OC(F)F)c(-c2nn(C)cc2NC(=O)c2cnn3cccnc23)c1 [Example 30, N-[3-[2-(difluoromethoxy)-5-(dimethylsulfamoyl)phenyl]-1-methyl-pyrazol-4-yl]pyrazolo[1,5-a]pyrimidine-3-carboxamide] | 11 nM | – |
| – | – | CC(CO)S(=O)(=O)c1ccc(OC(F)F)c(-c2nn(C)cc2NC(=O)c2cnn3cccnc23)c1 (single isomer, unassigned) [Example 24, N-[3-[2-(difluoromethoxy)-5-(2-hydroxy-1-methyl-ethyl)sulfonyl-phenyl]-1-methyl-pyrazol-4-yl]pyrazolo[1,5-a]pyrimidine-3-carboxamide] | – | 30 nM |
| – | – | Cn1cc(NC(=O)c2cnn3cccnc23)c(-c2cc(S(=O)(=O)N3CCC3)ccc2OC(F)F)n1 [Example 21, N-[3-[5-(azetidin-1-ylsulfonyl)-2-(difluoromethoxy)phenyl]-1-methyl-pyrazol-4-yl]pyrazolo[1,5-a]pyrimidine-3-carboxamide] | 14 nM | – |
| – | – | Cn1cc(NC(=O)c2cnn3cccnc23)c(-c2cc(S(C)(=O)=O)ccc2OC(F)F)n1 [Example 17, N-[3-[2-(difluoromethoxy)-5-methylsulfonyl-phenyl]-1-methyl-pyrazol-4-yl]pyrazolo[1,5-a]pyrimidine-3-carboxamide] | 14 nM | – |
| – | – | COCCS(=O)(=O)c1ccc(OC(F)F)c(-c2nn(C)cc2NC(=O)c2cnn3cccnc23)c1 [Example 14, N-[3-[2-(difluoromethoxy)-5-(2-methoxyethylsulfonyl)phenyl]-1-methyl-pyrazol-4-yl]pyrazolo[1,5-a]pyrimidine-3-carboxamide] | 23 nM | – |

Reference: patent US11453671B2, “Pyrazolopyrimidine inhibitors of JAK kinases and uses thereof” (Genentech, Inc., priority 2020, dated 2022)
